In ChEMBL document CHEMBL5729410, “Urea-substituted aromatic ring-linked dioxinoquinoline compounds, preparation method and uses thereof” (2022):

Tests used:
[1] = target: Proto-oncogene tyrosine-protein kinase receptor Ret (Homo sapiens, UniProt P07949); assay: Assay of Small Molecular Compounds for Inhibiting the Activity of RET Kinase: The assay is based on the LANCE TR-FRET technology of Perkin Elmer Inc., and the assay method is as follows:1.
[2] = target: Vascular endothelial growth factor receptor 2 (Homo sapiens, UniProt P35968); assay: Assay of Small Molecular Compounds for Inhibiting the Activity of VEGFR-2 Kinase: The assay is based on the LANCE TR-FRET technology of Perkin Elmer Inc., and the assay method is as follows:1.
Vascular endothelial growth factor receptor 2, sequence (P35968 whole entry): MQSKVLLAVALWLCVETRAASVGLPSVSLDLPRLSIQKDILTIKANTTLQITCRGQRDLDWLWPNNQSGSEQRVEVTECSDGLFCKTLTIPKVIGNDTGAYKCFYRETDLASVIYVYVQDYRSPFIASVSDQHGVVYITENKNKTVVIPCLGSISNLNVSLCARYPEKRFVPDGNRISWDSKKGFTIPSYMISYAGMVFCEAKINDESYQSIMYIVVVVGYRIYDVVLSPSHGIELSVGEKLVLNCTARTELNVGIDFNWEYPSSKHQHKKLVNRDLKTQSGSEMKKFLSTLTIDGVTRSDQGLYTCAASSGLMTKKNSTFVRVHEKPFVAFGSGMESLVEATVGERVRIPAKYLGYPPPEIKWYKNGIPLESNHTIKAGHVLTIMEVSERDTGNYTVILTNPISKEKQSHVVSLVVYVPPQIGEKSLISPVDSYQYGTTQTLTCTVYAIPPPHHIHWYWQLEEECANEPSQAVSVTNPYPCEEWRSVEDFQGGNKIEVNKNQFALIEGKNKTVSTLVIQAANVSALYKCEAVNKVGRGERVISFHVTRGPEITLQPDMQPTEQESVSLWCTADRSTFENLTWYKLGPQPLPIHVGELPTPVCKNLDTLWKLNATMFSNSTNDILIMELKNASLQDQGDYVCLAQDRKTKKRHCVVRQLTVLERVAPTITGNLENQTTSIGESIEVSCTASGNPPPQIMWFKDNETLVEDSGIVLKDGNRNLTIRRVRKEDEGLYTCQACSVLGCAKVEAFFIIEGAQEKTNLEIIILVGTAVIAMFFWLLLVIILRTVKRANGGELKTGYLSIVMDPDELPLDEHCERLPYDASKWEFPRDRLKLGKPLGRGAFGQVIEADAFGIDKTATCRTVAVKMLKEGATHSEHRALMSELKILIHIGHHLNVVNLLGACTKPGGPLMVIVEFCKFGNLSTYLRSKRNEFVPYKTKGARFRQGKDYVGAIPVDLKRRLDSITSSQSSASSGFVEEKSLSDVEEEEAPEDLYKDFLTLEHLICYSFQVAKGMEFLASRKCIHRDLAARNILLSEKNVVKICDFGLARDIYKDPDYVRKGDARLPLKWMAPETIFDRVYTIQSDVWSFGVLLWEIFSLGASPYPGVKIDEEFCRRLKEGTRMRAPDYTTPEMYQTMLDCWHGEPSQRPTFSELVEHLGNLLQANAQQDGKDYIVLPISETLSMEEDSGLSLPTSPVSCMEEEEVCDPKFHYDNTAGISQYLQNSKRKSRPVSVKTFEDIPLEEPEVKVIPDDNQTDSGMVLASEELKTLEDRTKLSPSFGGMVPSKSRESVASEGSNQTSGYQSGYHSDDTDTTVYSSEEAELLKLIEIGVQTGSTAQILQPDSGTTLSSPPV

Proto-oncogene tyrosine-protein kinase receptor Ret, sequence (P07949 whole entry): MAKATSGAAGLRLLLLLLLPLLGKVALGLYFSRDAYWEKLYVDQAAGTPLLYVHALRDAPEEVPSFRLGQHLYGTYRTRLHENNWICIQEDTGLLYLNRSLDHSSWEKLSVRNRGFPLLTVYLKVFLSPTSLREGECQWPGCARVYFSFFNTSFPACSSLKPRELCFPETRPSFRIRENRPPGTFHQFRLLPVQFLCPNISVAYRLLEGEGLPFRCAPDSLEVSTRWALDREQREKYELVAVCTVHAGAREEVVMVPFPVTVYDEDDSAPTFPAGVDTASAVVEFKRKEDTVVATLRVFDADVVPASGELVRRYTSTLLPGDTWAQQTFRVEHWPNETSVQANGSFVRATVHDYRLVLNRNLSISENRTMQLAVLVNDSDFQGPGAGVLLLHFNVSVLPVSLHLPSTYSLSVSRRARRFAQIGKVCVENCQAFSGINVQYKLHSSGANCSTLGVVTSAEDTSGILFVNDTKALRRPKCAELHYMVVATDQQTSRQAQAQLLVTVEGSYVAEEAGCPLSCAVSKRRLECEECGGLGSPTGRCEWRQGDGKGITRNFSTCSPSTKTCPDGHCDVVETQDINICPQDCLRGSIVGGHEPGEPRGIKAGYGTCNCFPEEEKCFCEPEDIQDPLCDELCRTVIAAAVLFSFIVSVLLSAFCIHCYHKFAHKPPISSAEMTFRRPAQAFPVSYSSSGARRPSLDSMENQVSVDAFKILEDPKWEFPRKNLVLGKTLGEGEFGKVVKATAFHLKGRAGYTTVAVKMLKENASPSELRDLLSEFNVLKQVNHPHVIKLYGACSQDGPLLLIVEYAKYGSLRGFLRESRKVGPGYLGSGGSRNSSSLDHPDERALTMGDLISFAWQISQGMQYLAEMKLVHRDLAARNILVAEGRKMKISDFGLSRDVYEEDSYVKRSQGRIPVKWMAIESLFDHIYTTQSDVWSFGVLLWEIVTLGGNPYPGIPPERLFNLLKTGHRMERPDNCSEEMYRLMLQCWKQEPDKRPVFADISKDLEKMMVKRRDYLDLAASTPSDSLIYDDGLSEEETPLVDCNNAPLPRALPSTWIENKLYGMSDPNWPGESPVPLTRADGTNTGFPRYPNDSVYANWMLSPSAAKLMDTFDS

Structure (SMILES)	IC50 [1]	IC50 [2]
O=C(Nc1ccc(Oc2ccnc3cc(OC4CCOCC4)c4c(c23)OCCO4)cc1Cl)NC1CC1	< 50 nM	–
CN(CCCOc1cc2nccc(Oc3ccc(NC(=O)Nc4ccc(Cl)c(C(F)(F)F)c4)cc3)c2c2c1OCCO2)C1CCC1	< 50 nM	< 50 nM
O=C(Nc1ccc(Oc2ccnc3cc(OCCCN4CCOCC4)c4c(c23)OCCO4)cc1F)NC1CC1	< 50 nM	< 50 nM
